The source of these data is ChEMBL document CHEMBL5370532, “Selective Estrogen receptor degraders (SERDs) for the treatment of breast cancer: An overview” (Eur J Med Chem, 2023).

Data set [1] is described as follows: Observed AUC (0 to infinity) in Sprague-Dawley rat at 10 mg/kg, po via gavage for 2 hrs by UHPLC analysis. Type of data set: ADME, organism-based. The conditions noted are these: in vivo. The arrangement: dose 10 mg/kg, time 2 hrs, route po.
A short description of data set [2]: Half life in Sprague-Dawley rat at 10 mg/kg, po via gavage for 2 hrs by UHPLC analysis. Type of data set: ADME, organism-based. To be noted: in vivo.
Data set [3] can be described thus: Cmax in Sprague-Dawley rat at 10 mg/kg, po via gavage for 2 hrs by UHPLC analysis. The arrangement: dose 10 mg/kg, time 2 hrs, route po. Type of data set: ADME, organism-based. To be noted: in vivo.
For a further data set, the system named is Ishikawa. Kind of data set: Antiproliferative activity against human Ishikawa cells assessed as inhibition of cell growth incubated for 48 hrs by MTT assay. Type of data set: functional, cell-based.
The subject of data set [4] is MCF7. As to the kind of experiment: Antiproliferative activity against human MCF7 cells assessed as inhibition of cell growth incubated for 48 hrs by MTT assay. To be noted: MCF7, 48 h. It counts as functional, cell-based.
The nature of data set [5]: Downregulation of ER expression in human MCF7 cells incubated for 48 hrs by ELISA. Type of data set: functional, cell-based. The conditions noted are these: MCF7, 48 h.
A short description of data set [6]: In vivo antagonist activity against E2-mediated uterine stimulation in Sprague-Dawley rat administered orally or subcutaneously once daily for 3 days. Type of data set: functional, organism-based.
The target of the next data set is Estrogen receptor beta (Homo sapiens, UniProt Q92731). Kind of data set: Inhibition of ERbeta (unknown origin) incubated for 4 hrs by fluorescence polarization assay.
Sequence of Estrogen receptor beta (Q92731 whole entry): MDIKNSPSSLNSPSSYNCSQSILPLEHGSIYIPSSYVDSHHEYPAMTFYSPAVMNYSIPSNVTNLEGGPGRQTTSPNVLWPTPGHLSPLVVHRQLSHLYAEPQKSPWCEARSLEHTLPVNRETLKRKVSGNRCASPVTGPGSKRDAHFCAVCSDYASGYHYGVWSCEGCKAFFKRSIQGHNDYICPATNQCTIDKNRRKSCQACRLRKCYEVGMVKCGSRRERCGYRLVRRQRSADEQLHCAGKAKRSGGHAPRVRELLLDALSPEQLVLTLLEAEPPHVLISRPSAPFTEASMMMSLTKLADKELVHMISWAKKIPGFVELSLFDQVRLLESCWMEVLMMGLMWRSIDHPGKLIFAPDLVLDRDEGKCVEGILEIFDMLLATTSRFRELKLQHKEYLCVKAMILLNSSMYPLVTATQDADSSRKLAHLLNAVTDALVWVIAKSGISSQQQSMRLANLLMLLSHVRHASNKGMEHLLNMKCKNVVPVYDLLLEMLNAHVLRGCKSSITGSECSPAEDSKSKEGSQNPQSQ
The subject of data set [7] is MCF7. Kind of data set: Antiproliferative activity against 17beta-estradiol stimulated human MCF7 cells assessed as inhibition of cell growth incubated for 5 to 7 days by fluorescence based assay. Type of data set: functional.
Data set [8] concerns MCF7. Kind of data set: Antiproliferative activity against human MCF7 cells assessed as inhibition of cell growth incubated for 48 hrs by CCK-8 assay. Type of data set: functional, cell-based. To be noted: MCF7, 48 h.

pEC50, pIC50: −log10 of the molar value.

`C[C@]12CC[C@@H]3c4ccc(B(O)O)cc4C[C@@H](CCCCCCCCC[S+]([O-])CCCC(F)(F)C(F)(F)F)[C@H]3[C@@H]1CC[C@@H]2O` (stereo not given in full) [ZB-716]: in data set [1], the AUC(0-inf) amounted to 1450 ng·h/mL. In addition, in [2], the half-life was 17 h. The Cmax in [3] came to 158 ng/mL.
As for `O=C(/C=C\c1ccc(-c2nc(-c3ccc(O)cc3)nc(-c3ccc(O)cc3)n2)cc1)NCCCO`, the negative-log IC50 (pIC50) was 5.51 with Ishikawa and 5.50 with MCF7 [4].
Compound `CCNCCc1ccc(CN(CC)c2cc(OC)ccc2[C@@H]2CCc3cc(O)ccc3C2)cc1` [ELACESTRANT] gave a pEC50 in data set [5] of 9.22. The same compound had an EC50 in [6] of 0.3 mg/kg. On Estrogen receptor beta, the pIC50 was 6.06.
On to `CC1=C(c2ccc(O)cc2)[C@H](c2ccc(OCCN3CC[C@@H](C)C3)cc2)Oc2cc(O)ccc21`, for which the negative-log IC50 (pIC50) with MCF7 [7] is 8.14.
Take `COc1ccc(C(=O)C2=C(Oc3ccc(/C=C/C(=O)O)cc3)c3ccc(O)cc3OC2)cc1`: in the data set with MCF7 [8], the pIC50 was 6.10.
